Results taken from patent US10112918B2, “15-oxospiramilactone derivatives, preparation method and uses thereof” (Kunming Institute of Botany, The Chinese Academy of Sciences, priority 2013, dated 2018).
Like-named read-outs stand apart in the source and are kept apart here.

Key:
Type in all cases: cell-based
[1] = system: HL-60 (human promyelocytic leukemia cells); assay: MTT inhibition of tumor cell growth, HL-60; details: Homo sapiens, HL-60, 48 h
How it was run: (§1)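 Compound exposure lasts 48 h at 37° C on cells plated at 5000-10000 per well in serum-containing medium. Viability is read by MTT reduction at 595 nm, and IC50 is computed with the two-point Reed and Muench method.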

[2] = system: SMMC-7721 (human hepatoma cells); assay: MTT inhibition of tumor cell growth, SMMC-7721; details: Homo sapiens, SMMC-7721, 48 h
How it was run: as §1

[3] = system: A-549 (Human lung adenocarcinoma cells); assay: MTT inhibition of tumor cell growth, A-549; details: Homo sapiens, A549, 48 h
How it was run: as §1

[4] = system: MCF-7 (human breast cancer cells); assay: MTT inhibition of tumor cell growth, MCF-7; details: Homo sapiens, MCF7, 48 h
How it was run: as §1

[5] = system: SW-480 (human colon cancer cells); assay: MTT inhibition of tumor cell growth, SW-480; details: Homo sapiens, SW480, 48 h
How it was run: as §1

[6] = system: Wnt signaling pathway (Top-Flash reporter gene); assay: Top-Flash Wnt reporter gene assay in HEK293T cells with Wnt3a conditioned medium; details: Homo sapiens, HEK-293T, 6 h, HEK293T, Wnt3a conditioned medium, 6 h
Procedure: HEK293T cells were cultured in DMEM containing 10% fetal bovine serum (Invitrogen) at 37° C., 5% CO2. The cells were passaged every other day. The density was retained at 70˜80% during passage. L cell line (CRL-2647, purchased from the gene bank of ATCC, the US) and the control cell line (CRL-2648, purchased from ATCC, US), which stably secreted mouse Wnt3a protein, were cultured in DMEM containing 50 ug/ml G418 and 10% fetal bovine serum, at 37° C., 5% CO2. When the cells grew to a density of about 70%, the medium was replaced with DMEM containing 10% fetal bovine serum. After continuous culture for 4 days, the culture was collected and centrifuged, and the supernatant was kept so that the Wnt conditioned medium was obtained. After titration assay, the conditioned medium was quick-frozen in liquid nitrogen, and placed at −80° C. for long-term storage, so that the titer was kept unchanged.
The cells were seeded to a 48-well plate at a density of […] cells per well, and transfected 20 h later. The reagents for plasmid transfection were calculated based on the amount in each well of the 48-well plate as following: the total amount of plasmid was 125 ng/well; the plasmid was first added to a serum-free medium (25 μL/well) and mixed well; PLUS reagent (Invitrogen) was then added in an amount of 0.5 μL/well and mixed well, then stood for 15 min; Lipofectamine (Invitrogen) liposome was added in an amount of 0.5 μL/well to serum-free DMEM medium (25 μL/well), and then mixed with the solution containing the plasmid and the PLUS, and stood for 15 min. The cells were cultured in serum-free DMEM medium (100 μL/well), and the final mixture of plasmid, PLUS and Lipofectamine were added to the cells. After incubation for 3 h, the transfection was stopped by the medium containing 10% fetal bovine serum (200 μL/well).
The HEK293T cells used for activity assay of the report gene were transfected by the method as shown in 2). Activity assay of Wnt reporter gene: the amount of plasmid for transfection was 5 ng/well for TOP-flash and 5 ng/well for GFP plasmid as internal standard, with lacZ added to reach a total amount of 125 ng/well. […] After treating for 6 h, Boehringer Mannheim Luci-ferase Assay Kit was used to lyse cells (200 μL/well). 50 μL from each well was pipetted into a 96-well plate. The indensity of GFP protein in the cell lysate was measured by fluorimeter FL600 (BIO-TEK Inc. Winooski, Vt.), and taken as internal standard for cell transfection efficiency. 10 μL substrate of luciferase was then added to each well, and the activity of luciferase was measured by Micro Lumate Plus (Perkin Elmer Inc. Wellesley, Mass.) luminometer. Finally, GFP indensity was used as internal standard to calibrate the activity of luciferase, i.e. the activity of Wnt reporter gene.
Calculation of IC50 (taking the calculation of IC50 of the Wnt signaling pathway for example): background (the activity as measured in the groups treated with a conditioned medium containing DMSO only) was subtracted from the reporter gene activity as measured in the groups treated by Wnt3a conditioned medium with or without the compound to be tested at different concentrations; and the obtained value was defined as the activity of the reporter gene induced by Wnt or the residual activity of the reporter gene after adding the compound to be tested. The residual activity was normalized by the activity induced by Wnt to get the relative residual activity. Then combine with the concentrations of the compound to be tested to plot a linear graph, and a dose-effect curve was fitted based on 4-parameter logistic fit. IC50 of the Wnt signaling pathway is determined as the concentration at which the relative residual activity is 0.5.

[7] = Table 2, derivatives having potential Michael reaction acceptor
[8] = Table 4, derivatives obtained by reduction of the lactonic ring
[9] = Table 8, read-out: IC50 (μM), inhibitory activity on the Wnt signaling pathway
[10] = Table 1, 7-hydroxy derivatives of S-3
[11] = Table 1, 7-hydroxy derivatives of S-3, read-out: IC50 SW-480
[12] = Table 7 (second), derivatives modified on 7-hydroxyl of S-3, read-out: IC50 (μM), inhibitory activity on the Wnt signaling pathway
[13] = Table 5, derivatives having double Michael reaction acceptor
[14] = Table 3, single Michael reaction acceptor, modified lactonic ring

C=C1C(=O)C23CC[C@H]1CC2[C@]1(COC(C)=O)CCC[C@@](C)(COC(C)=O)C1CC3=O (stereo partly shown) [Compound 47]
IC50 [1, 7]: 3.38 µM | IC50 [1, 8]: 3.38 µM | IC50 [2, 7]: 3.91 µM | IC50 [2, 8]: 3.91 µM | IC50 [3, 7]: 2.95 µM | IC50 [3, 8]: 2.95 µM | IC50 [4, 7]: 3.38 µM | IC50 [4, 8]: 3.38 µM | IC50 ([5]; Table 2, derivatives having potential Michael reaction acceptor, read-out: IC50 SW-480): 3.74 µM | IC50 ([5]; Table 4, derivatives obtained by reduction of the lactonic ring, read-out: IC50 SW-480): 3.74 µM | IC50 ([5]; Table 6, 7-carbonyl derivatives, read-out: IC50 SW-480, 7-carbonyl derivatives): 3.67 µM | IC50 [6, 9]: 16.9 ± 1.89 µM

C=C1C(=O)C23CC[C@H]1CC2[C@@]12CCC[C@@](C)(COC1=O)C2C[C@H]3OC(=O)c1ccc([N+](=O)[O-])cc1 (stereo partly shown) [Compound 1k]
IC50 [1, 10]: 0.86 µM | IC50 [2, 10]: 2.89 µM | IC50 [3, 10]: 1.05 µM | IC50 [4, 10]: 0.8 µM | IC50 [5, 11]: 0.69 µM | IC50 [6, 12]: 10.7 ± 0.39 µM

C=C1C(=O)C23CC[C@H]1CC2[C@@]12CCC[C@@](C)(COC1=O)C2C[C@H]3OC(=O)[C@@H](C)Cl (stereo partly shown) [Compound 1i]
IC50 [1, 10]: 3.37 µM | IC50 [2, 10]: 3.35 µM | IC50 [3, 10]: 2.59 µM | IC50 [4, 10]: 2.58 µM | IC50 [5, 11]: 2.5 µM | IC50 [6, 12]: 28.3 ± 2.76 µM

C=C1C(=O)C23CC[C@@H](CC2[C@]2(COS(C)(=O)=O)CCC[C@@](C)(COS(C)(=O)=O)C12)C(=C)C3=O (stereo partly shown) [Compound 74a]
IC50 [1, 13]: 0.51 µM | IC50 [2, 13]: 0.26 µM | IC50 [3, 13]: 0.56 µM | IC50 [4, 13]: 0.53 µM | IC50 ([5]; Table 5, derivatives having double Michael reaction acceptor, read-out: IC50 SW-480): 0.15 µM | IC50 ([5]; Table 6, double Michael reaction acceptor derivatives, read-out: IC50 SW-480, derivatives having double Michael reaction acceptor): 0.65 µM | IC50 ([6]; Table 9, read-out: IC50(μM), inhibitory activity on the Wnt signaling pathway): 11.2 ± 1.54 µM

C=C1C(=O)C23CC[C@H]1CC2[C@@]12CCC[C@@](C)(COC1=O)C2C[C@H]3OS(C)(=O)=O (stereo partly shown) [Compound 1q]
IC50 [1, 10]: 5.15 µM | IC50 [2, 10]: 10.5 µM | IC50 [3, 10]: 4.17 µM | IC50 [4, 10]: 3.82 µM | IC50 [5, 11]: 3.43 µM | IC50 [6, 12]: 15.1 ± 2.89 µM

C=C1C(=O)C23CC[C@H]1CC2[C@@]12CCC[C@@]4(C)CO[C@@H]1O[C@@H]3CC42 (stereo partly shown) [Compound 36]
IC50 [1, 14]: 17 µM | IC50 [2, 14]: 10.9 µM | IC50 [3, 14]: 13.7 µM | IC50 [4, 14]: 18.5 µM | IC50 ([5]; Table 3, single Michael reaction acceptor, modified lactonic ring, read-out: IC50 SW-480): 24.6 µM | IC50 [6, 9]: 18.1 ± 2.67 µM

C=C1C(=O)C23CC[C@H]1CC2[C@@]12CCC[C@@](C)(COC1=O)C2C[C@H]3OS(=O)(=O)Cc1ccccc1 (stereo partly shown) [Compound 1r]
IC50 [1, 10]: 0.58 µM | IC50 [2, 10]: 0.57 µM | IC50 [3, 10]: 0.49 µM | IC50 [4, 10]: 2.06 µM | IC50 [5, 11]: 1.17 µM | IC50 [6, 12]: 8.92 ± 0.98 µM
